Results taken from patent EP2508526A1, “Spiroalkene carboxamide derivatives and their use as chemokine receptor modulators” (Ares Trading SA, priority 2011, dated 2012).
Counter-ions that a name gives are not always drawn.

What was measured:
hCCR2b [1] = target: T1, hCCR2b (Homo sapiens, UniProt P41597); assay: CCR2 binding assay ([125I]MCP-1, SPA, CHO cell membranes); set-up: expressed in transfected cells; host or cells: CHO cells (membrane preparation); details: membranes from CHO cells expressing hCCR2b, 50 pM [125I]MCP-1; read-out: Binding hCCR2 (Ki)
T1 sequence (P41597 1-360 isoform P41597-2): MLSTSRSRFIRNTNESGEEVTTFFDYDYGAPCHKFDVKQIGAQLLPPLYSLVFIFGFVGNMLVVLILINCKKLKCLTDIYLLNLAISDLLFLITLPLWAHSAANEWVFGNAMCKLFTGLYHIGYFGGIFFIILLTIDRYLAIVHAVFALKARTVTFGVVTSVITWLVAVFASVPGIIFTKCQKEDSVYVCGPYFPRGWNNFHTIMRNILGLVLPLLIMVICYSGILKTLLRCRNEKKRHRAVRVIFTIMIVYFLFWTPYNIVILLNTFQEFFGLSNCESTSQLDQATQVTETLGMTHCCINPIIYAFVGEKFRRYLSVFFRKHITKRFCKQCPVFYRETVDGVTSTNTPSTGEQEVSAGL
Summary of the method: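 CHO membranes expressing hCCR2b (1–5 µg/well) with 50 pM [125I]MCP-1 and WGA SPA beads in 50 mM HEPES pH 7.4, 5 mM MgCl2, 1 mM CaCl2, 0.1% BSA, 1% DMSO; 90 min RT with agitation. Bound counts on scintillation counter; nonspecific defined by 1000-fold excess unlabeled compound.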

hCCR2b [2] = target: T1, hCCR2b; assay: Chemotaxis of L1.2-hCCR2b cells towards MCP-1 P8A; format: cell-based; set-up: expressed in transfected cells; host or cells: L1.2 cells (murine pre-B cell line); details: MCP-1 P8A at EC80, 4-hours incubation
Description: L1.2 cells, a murine pre-LB cellline, were transfected with the human CCR2b receptor for use in the transmigration of L1.2 hCCR2b on the chemotaxis system: ChemotX® provided by Neuroprobes (8µm pore size). Monocyte Chemoattractant Protein-1 (MCP-1) stimulation leads to activate the CCR2 receptor and inititates a cascade of events including chemotaxis. MCP-1 ligand will be replaced by MCP-1 P8A protein with genetic modifications to prevent the oligomerization of the protein. L1.2-hCCR2b are incubated in white RPMI 1640, 5% v/v Heat inactivated FCS, 1% v/v penicillin-streptomycin supplemented with 5 mM Butyrate overnight to enhance receptor expression level at the cell surface. L1.2-hCCR2b cells and compounds in DMSO (1% final) are preincubated 15 min in chemotaxis medium and placed in the Upper Chamber of the chemotaxis system. The MCP-1 P8A initially present at its EC80 (concentration of MCP-1 P8A which allows 80% of cell migration) in the Lower Chamber (with compounds to avoid any compound gradient) diffuses through the pores of the membrane and interacts with the CCR2 receptor of cells present in the upper chamber. The tested compounds can also potentially interact with CCR2 receptor and therefore inhibit the migration of the cells from the Upper Chamber to the Lower Chamber. After a 4-hours incubation time at 37°C, 5% CO2, a quantification of the cells which have migrated is performed using the Cyquant (Invitrogen) and a fluorescent reader as a Fluostar (exc: 485nm; emm: 520 nm). Specific migration is assessed by substracting the basal migration of cells without any stimulation. Chemotaxis data were analyzed using the Genedata Screener® software.

Row | Ki (hCCR2b [1]) [nM] | Ki (hCCR2b [2]) [nM] | Compound
1 | < 50 | < 50 | CCN1CCC2(CC1)OC(=O)C(C)=C2C(=O)N1CCN(c2cccc(C(F)(F)F)c2)CC1 [Compound 74, 8-ethyl-3-methyl-4-({4-[3-(trifluoromethyl)phenyl]piperazin-1-yl}carbonyl)-1-oxa-8-azaspiro[4.5]dec-3-en-2-one]
2 | < 50 | < 50 | CC1=C(C(=O)N2CCc3ccc(C(F)(F)F)cc3C2)C2(CCN(C(C)C)CC2)OC1=O [Compound 62, 8-isopropyl-3-methyl-4-{[7-(trifluoromethyl)-3,4-dihydroisoquinolin-2 (1H)-yl]carbonyl}-1-oxa-8-azaspiro[4.5]dec-3-en-2-one]
3 | < 50 | < 50 | CC1=C(C(=O)N2COc3ccc(C(F)(F)F)cc3C2)C2(CCN(C(C)C)CC2)OC1=O [Compound 66, 8-isopropyl-3-methyl-4-{[6-(trifluoromethyl)-2H-1,3-benzoxazin-3(4H)-yl]carbonyl}-1-oxa-8-azaspiro[4.5]dec-3-en-2-one]
4 | < 50 | < 50 | CC1=C(C(=O)N2CCc3ccc(C(F)(F)F)cc3C2)C2(CCN(C3CCOCC3)CC2)OC1=O [Compound 26, 3-methyl-8-(tetrahydro-2H-pyran-4-yl)-4-{[7-(trifluoromethyl)-3,4-dihydroisoquinolin-2(1H)-yl]carbony}-1-oxa-8-azaspiro[4.5]dec-3-en-2-one]
5 | 100 to 500 | – | CCN1CCC2(CC1)OC(=O)C(C)=C2C(=O)N1CCN(c2ccc(OC(F)(F)F)cc2)CC1 [Compound 93, 8-ethyl-3-methyl-4-({4-[4-(trifluoromethoxy)phenyl]piperazin-1-yl}carbonyl)-1-oxa-8-azaspiro[4.5]1dec-3-en-2-one]
6 | 100 to 500 | – | CC1=C(C(=O)N2CCN(c3cccc(C(F)(F)F)c3)CC2)C2(CCNCC2)OC1=O [Example 1, 3-methyl-4-({4-[3-(trifluoromethyl)phenyl]piperazin-1-yl}carbonyl)-1-oxa-8-azaspiro[4.5]dec-3-en-2-one, dihydrochloride salt]
7 | 500 to 2000 | – | CCN1CCC2(CC1)OC(=O)C(C)=C2C(=O)N1CCN(c2cccc(F)c2)CC1 [Compound 80, 8-ethyl-4-{[4-(3-fluorophenyl)piperazin-1-yl]carbonyl}-3-methyl-1-oxa-8-azaspiro[4.5]dec-3-en-2-one]
8 | < 50 | – | CC1=C(C(=O)N2CCN(c3cccc(C(F)(F)F)c3)CC2)C2(CCN(CC(C)C)CC2)OC1=O [Compound 103, 8-isobutyl-3-methyl-4-({4-[3-(trifluoromethyl)phenyl]piperazin-1-yl}carbonyl)-1-oxa-8-azaspiro[4.5]dec-3-en-2-one]
9 | < 50 | – | CC1=C(C(=O)N2CCc3ccc(C(F)(F)F)cc3C2)C2(CCN(CC3CCOC3)CC2)OC1=O (stereo not shown) [Compound 33, 3-methyl-8-(tetrahydrofuran-3-ylmethyl)-4-{[7-(trifluoromethyl)-3,4-dihydroisoquinolin-2(1H)-yl]carbonyl}-1-oxa-8-azaspiro[4.5]dec-3-en-2-one]
10 | 100 to 500 | – | CO[C@@H]1COCC[C@@H]1N1CCC2(CC1)OC(=O)C(C)=C2C(=O)N1CCc2ncc(C(F)(F)F)cc2C1 (single isomer, unassigned) [Compound 44, (-)-1,5-anhydro-2,3-dideoxy-4-O-methyl-3-(3-methyl-2-oxo-4-{[3-(trifluoromethyl)-7,8-dihydro-1,6-naphthyridin-6(5H)-yl]carbonyl}-1-oxa-8-azaspiro[4.5]dec-3-en-8-yl)-pentitol]
11 | < 50 | – | CC1=C(C(=O)N2CCc3ccc(C(F)(F)F)cc3C2)C2(CCN(C3CCCCC3)CC2)OC1=O [Compound 29, 8-cyclohexyl-3-methyl-4-{[7-(trifluoromethyl)-3,4-dihydroisoquinolin-2(1H)-yl]carbonyl}-1-oxa-8-azaspiro[4.5]dec-3-en-2-one]
12 | < 50 | < 50 | CCN1CCC2(CC1)OC(=O)C(C)=C2C(=O)N1CCc2ccc(C(F)(F)F)cc2C1 [Compound 97, 8-ethyl-3-methyl-4-{[7-(trifluoromethyl)-3,4-dihydroisoquinolin-2(1H)-yl]carbonyl}-1-oxa-8-azaspiro[4.5]dec-3-en-2-one]
13 | 500 to 2000 | – | CC1=C(C(=O)N2CCN(c3cccc(C#N)c3)CC2)C2(CCN(Cc3ccccc3)CC2)OC1=O [Compound 111, 3-{4-[(8-benzyl-3-methyl-2-oxo-1-oxa-8-azaspiro[4.5]dec-3-en-4-yl)carbonyl]piperazin-1-yl}benzonitrile]
14 | 500 to 2000 | – | CC1=C(C(=O)N2CCN(c3cccc(C(F)(F)F)c3)CC2)C2(CCN(Cc3cc4ccccc4[nH]3)CC2)OC1=O [Compound 107, 8-(1H-indol-2-ylmethyl)-3-methyl-4-({4-[3-(trifluoromethyl)phenyl]piperazin-1-yl}carbonyl)-1-oxa-8-azaspiro[4.5]dec-3-en-2-one]
15 | < 50 | – | COc1ccccc1CCN1CCC2(CC1)OC(=O)C(C)=C2C(=O)N1CCN(c2cccc(C(F)(F)F)c2)CC1 [Compound 63, 8-[2-(2-methoxyphenyl)ethyl]-3-methyl-4-({4-[3-(trifluoromethyl)phenyl]piperazin-1-yl}carbonyl)-1-oxa-8-azaspiro[4.5]dec-3-en-2-one]
16 | 500 to 2000 | – | CCN1CCC2(CC1)OC(=O)C(C)=C2C(=O)NCCc1ccc(C(F)(F)F)cc1 [Compound 100, 8-ethyl-3-methyl-2-oxo-N-{2-[4-(trifluoromethyl)phenyl]ethyl}-1-oxa-8-azaspiro[4.5]dec-3-ene-4-carboxamide]

Row | Compound | Ki (hCCR2b [1]) [nM] | Ki (hCCR2b [2]) [nM]
17 | CC1=C(C(=O)N2CCc3ncc(C(F)(F)F)cc3C2)C2(CCNCC2)OC1=O [Compound 78, 3-methyl-4-{[3-(trifluoromethyl)-7,8-dihydro-1,6-naphthyridin-6(5H)-yl]carbonyl}-1-oxa-8-azaspiro[4.5]dec-3-en-2-one, hydrocloride salt] | 100 to 500 | –
